Experimental data: the NIST ThermoML archive (doi:10.1021/acs.jced.6b00657)

Assay: xn = mol fraction of the nth substance listed
Conditions: Liquid, absorption in thin film, x2 = 0

CCCCCC[n+]1ccn(C)c1.N#C[C-](C#N)C#N [3-hexyl-1-methylimidazolium tricyanomethanide] + O=C=O
Conditions	binary diffusion coefficient [m2/s]
298.15 K, 94 kPa	2e-10
298.15 K, 194 kPa	1.8e-10
298.15 K, 293 kPa	1.8e-10
298.15 K, 393 kPa	2e-10
298.15 K, 493 kPa	2e-10
298.15 K, 693 kPa	2.4e-10
298.15 K, 793 kPa	2.4e-10
298.15 K, 893 kPa	2.4e-10
298.15 K, 993 kPa	2.2e-10
298.15 K, 1193 kPa	3e-10
298.15 K, 1293 kPa	3.2e-10
298.15 K, 1393 kPa	2.9e-10
298.15 K, 1493 kPa	3e-10
298.15 K, 1693 kPa	3.1e-10
298.15 K, 1793 kPa	3.3e-10
308.15 K, 101 kPa	2.6e-10
308.15 K, 198 kPa	2.4e-10
308.15 K, 297 kPa	2.5e-10
308.15 K, 394 kPa	2.5e-10
308.15 K, 494 kPa	2.5e-10
308.15 K, 593 kPa	2.5e-10
308.15 K, 692 kPa	2.7e-10
308.15 K, 793 kPa	2.2e-10
308.15 K, 892 kPa	3.3e-10
308.15 K, 993 kPa	2.9e-10
308.15 K, 1093 kPa	3.1e-10
308.15 K, 1192 kPa	3.3e-10
308.15 K, 1292 kPa	3.3e-10
308.15 K, 1393 kPa	3.4e-10
308.15 K, 1492 kPa	3.4e-10
308.15 K, 1592 kPa	4e-10
308.15 K, 1693 kPa	3.8e-10
308.15 K, 1793 kPa	4.1e-10
308.15 K, 1893 kPa	4e-10
308.15 K, 1993 kPa	4.1e-10
323.15 K, 94 kPa	2.8e-10
323.15 K, 194 kPa	4.1e-10
323.15 K, 293 kPa	3.1e-10
323.15 K, 393 kPa	3.5e-10
323.15 K, 493 kPa	3.9e-10
323.15 K, 594 kPa	4.2e-10
323.15 K, 693 kPa	3.7e-10
323.15 K, 793 kPa	3.7e-10
323.15 K, 893 kPa	3.9e-10
323.15 K, 993 kPa	4e-10
323.15 K, 1093 kPa	3.8e-10
323.15 K, 1193 kPa	4e-10
323.15 K, 1293 kPa	4e-10
323.15 K, 1393 kPa	4.4e-10
323.15 K, 1493 kPa	4.3e-10
323.15 K, 1593 kPa	4.2e-10
323.15 K, 1693 kPa	4.7e-10
323.15 K, 1793 kPa	4.5e-10
323.15 K, 1893 kPa	3.7e-10
323.15 K, 1993 kPa	5.4e-10
338.25 K, 194 kPa	5.1e-10
338.25 K, 294 kPa	3.7e-10
338.25 K, 393 kPa	4.9e-10
338.25 K, 494 kPa	6.7e-10
338.25 K, 693 kPa	4.9e-10
338.25 K, 793 kPa	4.8e-10
338.25 K, 893 kPa	5.8e-10
338.25 K, 993 kPa	5.3e-10
338.25 K, 1092 kPa	5.3e-10
338.25 K, 1193 kPa	5.3e-10
338.25 K, 1292 kPa	5.6e-10
338.25 K, 1393 kPa	4.8e-10
338.25 K, 1493 kPa	5.5e-10
338.25 K, 1592 kPa	4.9e-10
338.25 K, 1693 kPa	6.6e-10
338.25 K, 1792 kPa	6e-10
338.25 K, 1893 kPa	6.1e-10
338.25 K, 1993 kPa	6.3e-10
353.25 K, 594 kPa	6.4e-10
353.25 K, 694 kPa	7.1e-10
353.25 K, 893 kPa	6e-10
353.25 K, 993 kPa	6.5e-10
353.25 K, 1193 kPa	6.3e-10
353.25 K, 1293 kPa	6.8e-10
353.25 K, 1393 kPa	6.3e-10
353.25 K, 1593 kPa	5.3e-10
353.25 K, 1693 kPa	7.6e-10
353.25 K, 1793 kPa	7.7e-10
353.25 K, 1893 kPa	7.7e-10
353.25 K, 1993 kPa	6.7e-10

CCn1cc[n+](C)c1.N#C[C-](C#N)C#N [1-ethyl-3-methyl-1H-imidazolium tricyanomethanide] + O=C=O
Conditions	binary diffusion coefficient [m2/s]
298.15 K, 96 kPa	3.3e-10
298.15 K, 194 kPa	2.4e-10
298.15 K, 294 kPa	2.7e-10
298.15 K, 393 kPa	2.6e-10
298.15 K, 493 kPa	2.8e-10
298.15 K, 793 kPa	3.6e-10
298.15 K, 893 kPa	3.2e-10
298.15 K, 993 kPa	3.2e-10
298.15 K, 1293 kPa	3.9e-10
298.15 K, 1393 kPa	3.8e-10
298.15 K, 1493 kPa	4.1e-10
298.15 K, 1793 kPa	4.4e-10
298.15 K, 1893 kPa	4.1e-10
298.15 K, 1992 kPa	4.2e-10
308.15 K, 194 kPa	2.9e-10
308.15 K, 293 kPa	3e-10
308.15 K, 393 kPa	3e-10
308.15 K, 493 kPa	3e-10
308.15 K, 593 kPa	3.1e-10
308.15 K, 693 kPa	3.3e-10
308.15 K, 792 kPa	3.8e-10
308.15 K, 893 kPa	3.6e-10
308.15 K, 993 kPa	3.5e-10
308.15 K, 1093 kPa	3.6e-10
308.15 K, 1192 kPa	4.1e-10
308.15 K, 1293 kPa	3.7e-10
308.15 K, 1393 kPa	3.9e-10
308.15 K, 1493 kPa	4.1e-10
308.15 K, 1593 kPa	3.9e-10
308.15 K, 1693 kPa	4.1e-10
308.15 K, 1792 kPa	4.2e-10
308.15 K, 1893 kPa	4.5e-10
308.15 K, 1993 kPa	4.1e-10
323.15 K, 194 kPa	4.4e-10
323.15 K, 294 kPa	4.8e-10
323.15 K, 394 kPa	4.4e-10
323.15 K, 494 kPa	3.9e-10
323.15 K, 593 kPa	4.1e-10
323.15 K, 692 kPa	4.1e-10
323.15 K, 793 kPa	4.4e-10
323.15 K, 892 kPa	5e-10
323.15 K, 993 kPa	4.4e-10
323.15 K, 1093 kPa	4.2e-10
323.15 K, 1193 kPa	5.3e-10
323.15 K, 1392 kPa	4.6e-10
323.15 K, 1492 kPa	4.2e-10
323.15 K, 1593 kPa	4.2e-10
323.15 K, 1693 kPa	4.2e-10
323.15 K, 1793 kPa	5.9e-10
323.15 K, 1993 kPa	4.9e-10
338.25 K, 94 kPa	5.1e-10
338.25 K, 194 kPa	5e-10
338.25 K, 294 kPa	5.1e-10
338.25 K, 394 kPa	4.9e-10
338.25 K, 494 kPa	5.8e-10
338.25 K, 594 kPa	4.5e-10
338.25 K, 693 kPa	4.6e-10
338.25 K, 793 kPa	5.6e-10
338.25 K, 893 kPa	5.2e-10
338.25 K, 1093 kPa	5.1e-10
338.25 K, 1192 kPa	5.2e-10
338.25 K, 1393 kPa	5.8e-10
338.25 K, 1493 kPa	4.9e-10
338.25 K, 1592 kPa	5.1e-10
338.25 K, 1693 kPa	4.6e-10
338.25 K, 1792 kPa	5.2e-10
338.25 K, 1993 kPa	5.4e-10
353.25 K, 95 kPa	6.1e-10
353.25 K, 294 kPa	9e-10
353.25 K, 494 kPa	7.4e-10
353.25 K, 594 kPa	6.6e-10
353.25 K, 694 kPa	6.6e-10
353.25 K, 794 kPa	6.8e-10
353.25 K, 894 kPa	7.8e-10
353.25 K, 994 kPa	6.7e-10
353.25 K, 1093 kPa	6.8e-10
353.25 K, 1192 kPa	7e-10
353.25 K, 1593 kPa	7.5e-10
353.25 K, 1693 kPa	8.2e-10
353.25 K, 1893 kPa	7.4e-10
353.25 K, 1993 kPa	7.8e-10
